Measured values from ChEMBL document CHEMBL1201862, “PubChem BioAssay data set” (2004).
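Each compound was tested at five concentrations against cells in 96-well plates for 48 hours. The concentration for 50% growth inhibition is given as GI50.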 Active and inactive are the calls of the source. Cut-off read from the data, not from the text of the source: active = GI50 up to about 1.1 µM and inactive = higher.

What was measured:
Test in all cases: DTP human tumour cell line panel, 48 h
[1] = test system: CCRF-CEM
[2] = test system: PC-3
[3] = test system: DU-145
[4] = test system: A498
[5] = test system: NCI-H23
[6] = test system: 786-0
[7] = test system: HT-29
[8] = test system: HCT-15
[9] = test system: UACC-62
[10] = test system: BT-549
[11] = test system: SF-268
[12] = test system: HOP-62
[13] = test system: NCI-H460
[14] = test system: SF-539
[15] = test system: IGROV-1
[16] = test system: SR
[17] = test system: OVCAR-5
[18] = test system: SN12C
[19] = test system: MDA-N
[20] = test system: SNB-19
[21] = test system: A549
[22] = test system: OVCAR-4
[23] = test system: SF-295
[24] = test system: RPMI-8226
[25] = test system: OVCAR-8
[26] = test system: SNB-75
[27] = test system: HCC 2998
[28] = test system: Hs-578T
[29] = test system: NCI-H226
[30] = test system: SW-620
[31] = test system: NCI-H522
[32] = test system: SK-MEL-5
[33] = test system: MCF7
[34] = test system: UO-31
[35] = test system: ACHN
[36] = test system: CAKI-1
[37] = test system: TK-10
[38] = test system: HL-60
[39] = test system: KM12
[40] = test system: OVCAR-3
[41] = test system: M14
[42] = test system: Malme-3M
[43] = test system: MDA-MB-231
[44] = test system: SK-MEL-28
[45] = test system: MDA-MB-435
[46] = test system: SK-OV-3
[47] = test system: U-251
[48] = test system: HOP-92
[49] = test system: EKVX
[50] = test system: HCT-116
[51] = test system: T47D
[52] = test system: UACC-257
[53] = test system: LOX IMVI
[54] = test system: COLO 205
[55] = test system: RXF 393
[56] = test system: MOLT-4
[57] = test system: NCI/ADR-RES
[58] = test system: SK-MEL-2
[59] = test system: K562

With `C=C1C(O)C2OC(=O)C(=C)C2C(OC(=O)/C(C)=C/C)CC2(C)OC2C2OC12` (stereo not given) the GI50 [1] was 12.6 µM (inactive), the GI50 [2] was 15.3 µM (inactive) and the GI50 [3] was 7.14 µM (inactive). For the same molecule, the GI50 [4] was 15.3 µM (inactive), the GI50 [5] was 8.28 µM (inactive) and the GI50 [6] was 6.31 µM (inactive). For the same molecule, the GI50 [7] was 5.47 µM (inactive), the GI50 [8] was 2.55 µM and the GI50 [9] was 15.3 µM (inactive). The GI50 [10] was 7.71 µM (inactive), the GI50 [11] was 4.67 µM (inactive) and the GI50 [12] was 14.5 µM (inactive). The GI50 [13] was 3.78 µM (inactive), the GI50 [14] was 6.85 µM (inactive) and the GI50 [15] was 6.15 µM (inactive). For the same molecule, the GI50 [16] was 1.93 µM (inactive), the GI50 [17] was 5.89 µM (inactive) and the GI50 [18] was 2.82 µM (inactive). The GI50 [19] was 2.2 µM (inactive), the GI50 [20] was 19.5 µM (inactive) and the GI50 [21] was 19.8 µM (inactive). For the same molecule, the GI50 [22] was 2.71 µM (inactive), the GI50 [23] was 14.2 µM (inactive) and the GI50 [24] was 2.58 µM (inactive). For the same molecule, the GI50 [25] was 6.11 µM (inactive), the GI50 [26] was 10.4 µM (inactive) and the GI50 [27] was 4.89 µM (inactive). The GI50 [28] was 20.7 µM (inactive), the GI50 [29] was > 100 µM (inactive) and the GI50 [30] was 8.04 µM (inactive). The GI50 [31] was 3.15 µM (inactive), the GI50 [32] was 6.22 µM (inactive) and the GI50 [33] was 4.44 µM (inactive). For the same molecule, the GI50 [34] was 5.98 µM (inactive), the GI50 [35] was 3.69 µM (inactive) and the GI50 [36] was 10.2 µM (inactive). The GI50 [37] was 14.4 µM (inactive), the GI50 [38] was 2.52 µM (inactive) and the GI50 [39] was 2.86 µM (inactive). The GI50 [40] was 6.28 µM (inactive), the GI50 [41] was 18 µM (inactive) and the GI50 [42] was 10.3 µM (inactive). For the same molecule, the GI50 [43] was 8.36 µM (inactive), the GI50 [44] was 20.4 µM (inactive) and the GI50 [45] was 5.74 µM (inactive). The GI50 [46] was 43.6 µM (inactive), the GI50 [47] was 17.2 µM (inactive) and the GI50 [48] was 19.4 µM (inactive). The GI50 [49] was 10.4 µM (inactive), the GI50 [50] was 5.22 µM (inactive) and the GI50 [51] was 14.3 µM (inactive). For the same molecule, the GI50 [52] was 15.7 µM (inactive), the GI50 [53] was 6.68 µM (inactive) and the GI50 [54] was 7.1 µM (inactive). The GI50 [55] was 4.85 µM (inactive), the GI50 [56] was 634 nM (active) and the GI50 [57] was 7.93 µM (inactive). The GI50 [58] was 5.47 µM (inactive).
With `COC(=O)CCC(C)[C@H]1CCC2C3C(C[C@H](OC(C)=O)[C@@]21C)[C@@]1(C)CCC2(C[C@H]1C[C@H]3OC(C)=O)OOC1(CCCCCCC1)OO2` (stereo not given in full) the GI50 [1] was 4.97 µM (inactive), the GI50 [2] was 3.4 µM (inactive) and the GI50 [3] was 6.58 µM (inactive). The GI50 [59] was 4.67 µM (inactive), the GI50 [4] was > 100 µM (inactive) and the GI50 [5] was 6.55 µM (inactive). For the same molecule, the GI50 [6] was 6 µM (inactive), the GI50 [7] was 9.08 µM (inactive) and the GI50 [8] was 5.52 µM. The GI50 [10] was 9.14 µM (inactive), the GI50 [11] was 6.27 µM (inactive) and the GI50 [12] was 4.99 µM (inactive). The GI50 [13] was 3.24 µM (inactive), the GI50 [14] was 18.6 µM (inactive) and the GI50 [15] was 6.37 µM (inactive). The GI50 [16] was 2.29 µM (inactive), the GI50 [17] was > 100 µM (inactive) and the GI50 [18] was 23.3 µM (inactive). The GI50 [19] was > 100 µM (inactive), the GI50 [20] was > 100 µM (inactive) and the GI50 [21] was 4.56 µM (inactive). For the same molecule, the GI50 [22] was 39 µM (inactive), the GI50 [23] was 6.38 µM (inactive) and the GI50 [24] was 1.67 µM (inactive). For the same molecule, the GI50 [25] was 4.82 µM (inactive), the GI50 [26] was 6.35 µM (inactive) and the GI50 [28] was 4.05 µM (inactive). The GI50 [29] was 6.79 µM (inactive), the GI50 [30] was 6.3 µM (inactive) and the GI50 [31] was 10.9 µM (inactive). For the same molecule, the GI50 [32] was 6.5 µM (inactive), the GI50 [33] was 6.64 µM (inactive) and the GI50 [34] was 7.26 µM (inactive). The GI50 [35] was 4.09 µM (inactive), the GI50 [36] was 2.55 µM (inactive) and the GI50 [37] was 6.53 µM (inactive). The GI50 [38] was 4.3 µM (inactive), the GI50 [39] was 4.88 µM (inactive) and the GI50 [40] was 2.73 µM (inactive). For the same molecule, the GI50 [41] was 27.9 µM (inactive), the GI50 [42] was 9.89 µM (inactive) and the GI50 [43] was 8.26 µM (inactive). The GI50 [44] was > 100 µM (inactive), the GI50 [45] was 18.4 µM (inactive) and the GI50 [46] was > 100 µM (inactive). For the same molecule, the GI50 [47] was 5.86 µM (inactive), the GI50 [48] was 7.55 µM (inactive) and the GI50 [49] was 1.36 µM (inactive). The GI50 [50] was 2.74 µM (inactive), the GI50 [51] was 2.02 µM (inactive) and the GI50 [52] was 5.35 µM (inactive). For the same molecule, the GI50 [53] was 3.65 µM (inactive), the GI50 [54] was 7.62 µM (inactive) and the GI50 [55] was > 100 µM (inactive). For the same molecule, the GI50 [56] was 3120 nM (inactive), the GI50 [57] was > 100 µM (inactive) and the GI50 [58] was > 100 µM (inactive).
